Here are results for one molecule from patent US20170367996A1, “Use Of Xanthophyll Carotenoids To Improve Visual Performance And Neural Efficiency” (University of Georgia Research Foundation, Inc., priority 2011, published 2017).

Common to all, as to assay type: in vivo, human
Experiment [1] relates to college baseball players. The experiment can be described thus: Contrast enhancement (CE). The settings on record: 20 mg/Z/day for 3-months. Here is the method:
(§1) Subjects: Seven college baseball players (M=20.3±0.58 years), supplemented with 20 mg/Z/day for 3-months, participated in this study. The visual function parameters MPOD, disability glare, photostress recovery time, and contrast enhancement were determined. The neural efficiency parameters Fixed Reaction Time (FRT); Variable Reaction Time (VRT); and Coincidence Anticipation Timing (CAT) were determined.
(§2) Stimuli presented in three-channel Maxwellian-view optical system (1 kW xenon-arc light source).
(§3) • 600 nm target (100% contrast grating, 5 cpd); 460 nm surround (see FIG. 1A(b)). • Threshold: intensity of background required to obscure edge between target and surround.

For experiment [2], the system named is college baseball players. The experiment can be described thus: Coincidence anticipation timing (CAT). The conditions noted are these: 20 mg/Z/day for 3-months; at the highest frequency. As for the experimental part: as §1
• Task: button press to indicate when a light bar (traveling along 120 LED linear track) reached a specified point. • Velocity randomly varied between 5, 10, 15, and 20 MPH (15 trials for each speed, randomly presented; inter-trial intervals randomly varied between 1000-3000 ms).

In experiment [3] the test system is college baseball players. The experiment can be described thus: Glare disability (GL). The settings on record: 20 mg/Z/day for 3-months. As for the experimental part:
as §1, §2
(§4) • 570 nm target (100% contrast, 5 cycles per degree—cpd); 10° inner, 12° outer diameter annulus comprised of broad-band xenon light (see FIG. 1 a). • Threshold: intensity of annulus required to completely veil target.

For experiment [4], the system named is college baseball players. The experiment can be described thus: Static and dynamic visual performance after zeaxanthin supplementation (Example 2). The settings on record: 20 mg/d supplementation ongoing; preliminary data.
Description: Baseball performance requires the ability to perceive and react to temporally varying stimuli under lighting conditions that are known to be most detrimental to visual function (i.e., short-wave light). Macular pigment (MP) lutein (L) and zeaxanthin (Z) in the retina—is known to improve performance under such conditions and may also improve neural efficiency. The purpose of this study was to assess static and dynamic visual performance in college baseball players in order to: • a) Define performance ability in athletes and non-athletes matched for age and MP (N=18); and, • b) Improve athletes' performance via supplementation.
as §2, §4, §3
• 570 nm target (100% contrast; 5 cpd). • 5 second exposure to bleaching photostressor (5° diameter disk; xenon-white light of log 2.5 μW/cm2 intensity). • Threshold: time to recover visibility of target. […]

Experiment [5] relates to college baseball players. Nature of the experiment: Photostress recovery time (PR). The settings on record: 20 mg/Z/day for 3-months; supplemented subjects. Here is the method:
as §1, §2
• 570 nm target (100% contrast; 5 cpd). • 5 second exposure to bleaching photostressor (5° diameter disk; xenon-white light of log 2.5 μW/cm2 intensity). • Threshold: time to recover visibility of target.

In experiment [6] the test system is college baseball players. Nature of the experiment: Fixed and variable position reaction time (FRT/VRT). The conditions noted are these: 20 mg/Z/day for 3-months. As for the experimental part: as §1
• Task: button press in response to LED repeatedly presented at same position (FRT) or random location (VFT) along the 120 LED linear track. • 60 trials; inter-trial intervals varied between 1000-3000 ms

Experiment [7] concerns college baseball players. The experiment can be described thus: Macular pigment optical density (MPOD) by customized heterochromatic flicker photometry, zeaxanthin supplementation study. The conditions noted are these: for MPOD (Example 2, preliminary data): 20 mg/d supplementation ongoing. Here is the method: as §1
• Customized HFP [3]—Macular Metrics Corp., Providence, R.I.,

For `CC1=C(/C=C/C(C)=C/C=C/C(C)=C/C=C/C=C(C)/C=C/C=C(C)/C=C/C2=C(C)C[C@@H](O)CC2(C)C)C(C)(C)C[C@H](O)C1` [Zeaxanthin, zeaxanthin], the Contrast enhancement result with college baseball players [1] is listed as “Early improvements”. In addition, the CAT accuracy entry with college baseball players [2] is on record as “improved”. Moreover, in the experiment with college baseball players [3], the “Glare (disability glare)” value is “Early improvements”. Further, in the experiment with college baseball players [4], the Dynamic visual performance result is “improvement” and the Static visual performance result is “improvement”. Also, in the experiment on college baseball players [5], the Photostress recovery time entry is “decreased”. Moreover, in the experiment with college baseball players [6], the FRT entry was “improved” and the VRT entry is listed as “improved”. Also, in the experiment with college baseball players [7] (20 mg/Z/day for 3-months, three subjects completed), the “MPOD in supplemented subjects” value is on record as “increased”. Besides, the “MPOD (Example 2, preliminary data)” value in the experiment on college baseball players [7] was “increases”. For the same molecule, the “MPOD (Example 2, preliminary data)” value in the experiment with college baseball players [7] (listed as zeaxanthin) is “Increases”. Further, the “12-week MPOD” value with college baseball players [7] (one subject, baseline MPOD 0.7 at 30-min of eccentricity, 20 mg/d, 12 weeks) came to 0.77.
